Assay results from US9708314B2, “Heterocyclic amide compound” (NISSAN CHEMICAL INDUSTRIES, LTD., priority 2013, dated 2017).

Experiments:
Type in all cases: in vivo
Glycine max = assay: Test Example 4: effect on crop by application to foliage (diluvial soil, plastic box); settings: for c (Glycine max) effect on crop: application herbicide amount 320 g/ha
Method in brief: (§1)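 Read-out is a 0–5 visual grade of herbicidal ratio (5: ≥90%, almost withered; 0: ≤5%) taken three weeks after treatment. Compound was applied as a diluted emulsion to stem and leaf parts of 14-day greenhouse-grown plants (25° C. to 30° C.) at rates expressed as g/ha.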

[1] = system: directly sowed Oryza sativa; assay: as above; settings: for d (directly sowed Oryza sativa) effect on crop: application herbicide amount 320 g/ha
Method in brief: as §1

Brassica campestris L. = assay: as above; settings: for g (Brassica campestris L.) effect on crop: application herbicide amount 320 g/ha
Method in brief: as §1

[2] = system: Beta vulgaris ssp. vulgaris; assay: as above; settings: for f (Beta vulgaris ssp. vulgaris) effect on crop: application herbicide amount 320 g/ha
Method in brief: as §1

Zea mays = assay: as above; settings: for b (Zea mays) effect on crop: application to foliage, application herbicide amount 320 g/ha
Method in brief: as §1

Cyperus difformis = assay: Test Example 3: herbicidal effect by application to foliage (Wagner pot, water depth 0.1-0.5 cm); settings: Nineteenth Table; for E (herbicidal effect grade): application to foliage
Method in brief: (§2)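 Grading uses six bands of herbicidal ratio, from 0 (≤5%, almost no effect) to 5 (≥90%, almost completely withered). Treatment was a stem-and-leaf spray of diluted emulsion at a fixed g/ha on 14-day-old plants; evaluation after three weeks.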

[3] = system: Echinochloa crus-galli var. crus-galli; assay: as above; settings: Nineteenth Table; for H (herbicidal effect grade): application to foliage
Method in brief: as §2

Leptochloa chinensis = assay: as above; settings: Nineteenth Table; for D (herbicidal effect grade): application to foliage
Method in brief: as §2

[4] = system: transplanted Oryza sativa; assay: Test Example 1: effect on crop, application before weed generation in submerged conditions; settings: Seventeenth Table
Text: [Test Example 1] Herbicidal Activity Test by Application Before Weed Generation in Submerged Conditions After alluvial soil was placed into 1/10000 are of Wagner pot, water was poured and mixed to form a submerged condition having a water depth of 4 cm. Seeds of Echinochloa oryzacola Vasing., Scirpus juncoides, and Monochoria vaginalis were sowed in a mixed manner in the above pot and thereafter 2.5 leaf stage Oryza sativa seedling was transplanted. On the day of sowing seeds, the emulsion agent containing the compound of the present invention prepared in accordance with Formulation Example 2 was diluted with water so as to be a predetermined herbicide amount and the diluted compound was applied to the surface of the water. The pot was placed in a greenhouse of 25° C. to 30° C. to grow plant. Three weeks after the herbicide application, effects on each plant were investigated in accordance with the following criteria. Criteria 5 Herbicidal ratio of 90% or more (almost completely withered) 4 Herbicidal ratio of 70% or more and less than 90% 3 Herbicidal ratio of 40% or more and less than 70% 2 Herbicidal ratio of 20% or more and less than 40% 1 Herbicidal ratio of 5% or more and less than 20% 0 Herbicidal ratio of 5% or less (almost no effect) A: Echinochloa oryzicola Vasing., B: Scirpus juncoides, C: Monochoria vaginalis, D: Leptochloa chinensis, E: Cyperus difformis, F: Digitaria ciliaris, G: Setaria viridis, H: Echinochloa crus-galli var. crus-galli, I: Avena fatua, J: Alopecurus myosuroides, K: Lolium multiflorum Lam., L: Apera spica-venti., M: Abutilon theophrasti, N: Amaranthus retroflexus, O: Chenopodium album, P: Stellaria media, Q: Galium spurium, R: Veronica persica, a: transplanted Oryza sativa, b: directly sowed Oryza sativa, c: Zea mays, d: Glycine max, e: Triticum aestivum, f: Beta vulgaris ssp. vulgaris, and g: Brassica campestris L. The application herbicide amount (g/ha) means an amount that a concentration is adjusted so that, when an application amount is converted into per hectare (1 ha), the herbicide is applied by the number of grams (g) of the described value.

[5] = application herbicide amount 320 g/ha
[6] = Application herbicide amount 320 g/ha
[7] = application herbicide amount 400 g/ha
[8] = Application herbicide amount 320 g/ha, effect on crop
[9] = Application herbicide amount 288 g/ha, foliage application
[10] = application herbicide amount 288 g/ha
[11] = application to foliage, 141 g/ha
[12] = application herbicide amount 141 g/ha

Compound: Cc1nnc(NC(=O)c2ccc(C(F)(F)F)n3cnnc23)o1 [1-001]
- c (Glycine max) effect on crop (Glycine max; application to foliage): 0 (Herbicidal ratio of 5% or less (almost no effect))
- d (directly sowed Oryza sativa) effect on crop ([1]; application to foliage): 3 (Herbicidal ratio of 40% or more and less than 70%)
- g (Brassica campestris L.) effect on crop (Brassica campestris L.; application to foliage): 4 (Herbicidal ratio of 70% or more and less than 90%)
- f (Beta vulgaris ssp. vulgaris) effect on crop ([2]; application to foliage): 4 (Herbicidal ratio of 70% or more and less than 90%)
- b (Zea mays) effect on crop (Zea mays): 0 (Herbicidal ratio of 5% or less (almost no effect))
- E (Cyperus difformis) herbicidal ratio grade (Cyperus difformis; [5]): 4 (Herbicidal ratio of 70% or more and less than 90%)
- H (Echinochloa crus-galli var. crus-galli) herbicidal ratio grade [3, 5]: 5 (Herbicidal ratio of 90% or more (almost completely withered))
- D (Leptochloa chinensis) herbicidal ratio grade (Leptochloa chinensis; [5]): 5 (Herbicidal ratio of 90% or more (almost completely withered))
- a: transplanted Oryza sativa (effect on crop grade) [4, 6]: 0 (Herbicidal ratio of 5% or less (almost no effect))

Compound: Cc1nnc(NC(=O)c2ccc(C(F)(F)F)n3c(C)nnc23)o1 [1-002]
- c (Glycine max) effect on crop (Glycine max; application to foliage): 0 (Herbicidal ratio of 5% or less (almost no effect))
- d (directly sowed Oryza sativa) effect on crop ([1]; application to foliage): 3 (Herbicidal ratio of 40% or more and less than 70%)
- g (Brassica campestris L.) effect on crop (Brassica campestris L.; application to foliage): 4 (Herbicidal ratio of 70% or more and less than 90%)
- f (Beta vulgaris ssp. vulgaris) effect on crop ([2]; application to foliage): 5 (Herbicidal ratio of 90% or more (almost completely withered))
- b (Zea mays) effect on crop (Zea mays): 0 (Herbicidal ratio of 5% or less (almost no effect))
- H (Echinochloa crus-galli var. crus-galli) herbicidal ratio grade [3, 7]: 4 (Herbicidal ratio of 70% or more and less than 90%)
- D (Leptochloa chinensis) herbicidal ratio grade (Leptochloa chinensis; [7]): 4 (Herbicidal ratio of 70% or more and less than 90%)
- a: transplanted Oryza sativa (effect on crop grade) [4, 6]: 0 (Herbicidal ratio of 5% or less (almost no effect))

Compound: Cc1nnc(NC(=O)c2ccc(C(F)(F)F)n3c(C(C)C)nnc23)o1 [1-004, 3-Isopropyl-N-(5-methyl-1,3,4-oxadiazol-2-yl)-5-(trifluoromethyl)-[1,2,4]triazolo[4,3-a]pyridine-8-carboxamide]
- c (Glycine max) effect on crop (Glycine max; application to foliage): 4 (Herbicidal ratio of 70% or more and less than 90%)
- d (directly sowed Oryza sativa) effect on crop ([1]; application to foliage): 4 (Herbicidal ratio of 70% or more and less than 90%)
- g (Brassica campestris L.) effect on crop (Brassica campestris L.; application to foliage): 3 (Herbicidal ratio of 40% or more and less than 70%)
- f (Beta vulgaris ssp. vulgaris) effect on crop ([2]; application to foliage): 4 (Herbicidal ratio of 70% or more and less than 90%)
- b (Zea mays) effect on crop (Zea mays): 0 (Herbicidal ratio of 5% or less (almost no effect))
- E (Cyperus difformis) herbicidal ratio grade (Cyperus difformis; [7]): 5 (Herbicidal ratio of 90% or more (almost completely withered))
- H (Echinochloa crus-galli var. crus-galli) herbicidal ratio grade [3, 7]: 4 (Herbicidal ratio of 70% or more and less than 90%)
- D (Leptochloa chinensis) herbicidal ratio grade (Leptochloa chinensis; [7]): 5 (Herbicidal ratio of 90% or more (almost completely withered))
- a: transplanted Oryza sativa (effect on crop grade) [4, 6]: 1 (Herbicidal ratio of 5% or more and less than 20%)

Compound: CCc1nnc(NC(=O)c2ccc(C(F)(F)F)n3c(C(C)C)nnc23)o1 [1-005]
- c (Glycine max) effect on crop (Glycine max; application to foliage): 1 (Herbicidal ratio of 5% or more and less than 20%)
- d (directly sowed Oryza sativa) effect on crop ([1]; application to foliage): 0 (Herbicidal ratio of 5% or less (almost no effect))
- g (Brassica campestris L.) effect on crop (Brassica campestris L.; application to foliage): 0 (Herbicidal ratio of 5% or less (almost no effect))
- f (Beta vulgaris ssp. vulgaris) effect on crop ([2]; application to foliage): 0 (Herbicidal ratio of 5% or less (almost no effect))
- b (Zea mays) effect on crop (Zea mays): 0 (Herbicidal ratio of 5% or less (almost no effect))
- E (Cyperus difformis) herbicidal ratio grade (Cyperus difformis; [7]): 5 (Herbicidal ratio of 90% or more (almost completely withered))
- H (Echinochloa crus-galli var. crus-galli) herbicidal ratio grade [3, 7]: 2 (Herbicidal ratio of 20% or more and less than 40%)
- D (Leptochloa chinensis) herbicidal ratio grade (Leptochloa chinensis; [7]): 5 (Herbicidal ratio of 90% or more (almost completely withered))
- a: transplanted Oryza sativa (effect on crop grade) [4, 6]: 0 (Herbicidal ratio of 5% or less (almost no effect))

Compound: Cc1nnc(NC(=O)c2ccc(C(F)(F)F)n3c(-c4ccccc4)nnc23)o1 [1-012]
- c (Glycine max) effect on crop (Glycine max; application to foliage): 1 (Herbicidal ratio of 5% or more and less than 20%)
- d (directly sowed Oryza sativa) effect on crop ([1]; application to foliage): 2 (Herbicidal ratio of 20% or more and less than 40%)
- g (Brassica campestris L.) effect on crop (Brassica campestris L.; application to foliage): 4 (Herbicidal ratio of 70% or more and less than 90%)
- f (Beta vulgaris ssp. vulgaris) effect on crop ([2]; application to foliage): 3 (Herbicidal ratio of 40% or more and less than 70%)
- b (Zea mays) effect on crop (Zea mays): 0 (Herbicidal ratio of 5% or less (almost no effect))
- H (Echinochloa crus-galli var. crus-galli) herbicidal ratio grade [3, 7]: 3 (Herbicidal ratio of 40% or more and less than 70%)
- D (Leptochloa chinensis) herbicidal ratio grade (Leptochloa chinensis; [7]): 5 (Herbicidal ratio of 90% or more (almost completely withered))
- a: transplanted Oryza sativa (effect on crop grade) [4, 6]: 0 (Herbicidal ratio of 5% or less (almost no effect))

Compound: CCOC(=O)Cc1nnc2c(C(=O)Nc3nnc(C)o3)ccc(C(F)(F)F)n12 [1-042]
- c (Glycine max) effect on crop (Glycine max; application to foliage): 1 (Herbicidal ratio of 5% or more and less than 20%)
- d (directly sowed Oryza sativa) effect on crop ([1]; application to foliage): 3 (Herbicidal ratio of 40% or more and less than 70%)
- g (Brassica campestris L.) effect on crop (Brassica campestris L.; application to foliage): 3 (Herbicidal ratio of 40% or more and less than 70%)
- f (Beta vulgaris ssp. vulgaris) effect on crop ([2]; application to foliage): 5 (Herbicidal ratio of 90% or more (almost completely withered))
- b (Zea mays) effect on crop (Zea mays): 0 (Herbicidal ratio of 5% or less (almost no effect))
- E (Cyperus difformis) herbicidal ratio grade (Cyperus difformis; [5]): 4 (Herbicidal ratio of 70% or more and less than 90%)
- H (Echinochloa crus-galli var. crus-galli) herbicidal ratio grade [3, 5]: 5 (Herbicidal ratio of 90% or more (almost completely withered))
- a: transplanted Oryza sativa (effect on crop grade) [4, 6]: 0 (Herbicidal ratio of 5% or less (almost no effect))

Compound: Cc1nnc(NC(=O)c2ccc(C(F)(F)F)n3c(Nc4ccccc4)nnc23)o1 [1-082]
- c (Glycine max; [8]): 0 (Herbicidal ratio of 5% or less (almost no effect))
- d [1, 8]: 3 (Herbicidal ratio of 40% or more and less than 70%)
- g (Brassica campestris L.; [8]): 0 (Herbicidal ratio of 5% or less (almost no effect))
- b (Zea mays; [8]): 0 (Herbicidal ratio of 5% or less (almost no effect))
- E (herbicidal effect grade) (Cyperus difformis; [5]): 4 (Herbicidal ratio of 70% or more and less than 90%)
- H (herbicidal effect grade) [3, 5]: 4 (Herbicidal ratio of 70% or more and less than 90%)
- D (herbicidal effect grade) (Leptochloa chinensis; [5]): 4 (Herbicidal ratio of 70% or more and less than 90%)
- a: transplanted Oryza sativa (effect on crop grade) [4, 6]: 0 (Herbicidal ratio of 5% or less (almost no effect))

Compound: C=CCSc1nnc2c(C(=O)Nc3nnco3)ccc(C(F)(F)F)n12 [1-128]
- d (Glycine max) effect on crop grade (Glycine max; [9]): 3 (Herbicidal ratio of 40% or more and less than 70%)
- g (Brassica campestris L.) effect on crop grade (Brassica campestris L.; [9]): 3 (Herbicidal ratio of 40% or more and less than 70%)
- f (Beta vulgaris ssp. vulgaris) effect on crop grade [2, 9]: 5 (Herbicidal ratio of 90% or more (almost completely withered))
- c (Zea mays) effect on crop grade (Zea mays; [9]): 0 (Herbicidal ratio of 5% or less (almost no effect))
- E (herbicidal effect grade) (Cyperus difformis; [10]): 3 (Herbicidal ratio of 40% or more and less than 70%)
- H (herbicidal effect grade) [3, 10]: 4 (Herbicidal ratio of 70% or more and less than 90%)
- D (herbicidal effect grade) (Leptochloa chinensis; [10]): 3 (Herbicidal ratio of 40% or more and less than 70%)
- a: transplanted Oryza sativa (effect on crop grade) ([4]; Application herbicide amount 288 g/ha): 0 (Herbicidal ratio of 5% or less (almost no effect))

Compound: CCN(C)c1nnc2c(C(=O)Nc3nnnn3C)ccc(C(F)(F)F)n12 [2-088]
- effect on crop, c (Glycine max) (Glycine max; [11]): 0 (Herbicidal ratio of 5% or less (almost no effect))
- effect on crop, d (directly sowed Oryza sativa) [1, 11]: 4 (Herbicidal ratio of 70% or more and less than 90%)
- effect on crop, g (Brassica campestris L.) (Brassica campestris L.; [11]): 5 (Herbicidal ratio of 90% or more (almost completely withered))
- effect on crop, f (Beta vulgaris ssp. vulgaris) [2, 11]: 5 (Herbicidal ratio of 90% or more (almost completely withered))
- E (herbicidal effect grade) (Cyperus difformis; [12]): 4 (Herbicidal ratio of 70% or more and less than 90%)
- H (herbicidal effect grade) [3, 12]: 5 (Herbicidal ratio of 90% or more (almost completely withered))
- D (herbicidal effect grade) (Leptochloa chinensis; [12]): 5 (Herbicidal ratio of 90% or more (almost completely withered))
- a: transplanted Oryza sativa (effect on crop grade) ([4]; Application herbicide amount 141 g/ha): 3 (Herbicidal ratio of 40% or more and less than 70%)
